Source: PMC10794144, “A novel antibiotic class targeting the lipopolysaccharide transporter” (Nature, 2024)
Converted amounts (≈) assume the structure as drawn. Where two headings read alike, the source gives them in different places.

System: A. baumannii
Experiment: microbe, parasite or virus in culture
Conditions: Acinetobacter baumannii, 100%
Method: MIC determinations were performed using the broth microdilution method and in line with CLSI guidelines M07 and M100 (refs. [37],[38]). Bacterial inocula were prepared by diluting a 0.5 McFarland suspension in CAMHB or lysogeny broth (LB) specifically for A. baylyi isolates. […] MIC values of all of the tested antibiotics were read as the lowest compound concentration inhibiting bacterial growth by naked eye or beyond which the OD600 ceased to decrease.

C[C@@H](O)[C@H]1C(=O)N2C(C(=O)O)=C(S[C@@H]3CN[C@H](C(=O)N(C)C)C3)[C@H](C)[C@H]12 [meropenem, reference compound]
MIC (read-out: MIC 100%, ROB08702, Study LGC284879): 8 mg/L (≈ 20.9 µM) | MIC (read-out: MIC 100%, ROB08702, Study LGC285582): 32 mg/L (≈ 83.4 µM) | MIC (read-out: MIC 100%, ROB08702, Study LGC286210): 32 mg/L (≈ 83.4 µM) | MIC (read-out: MIC 100%, ROB08702, Study LGC293598): 32 mg/L (≈ 83.4 µM) | MIC (read-out: MIC 100%, ROB08702, Study LGC294355): 16 mg/L (≈ 41.7 µM) | MIC (read-out: MIC 100%, ROB08702, Study LGC295147): 16 mg/L (≈ 41.7 µM) | MIC (read-out: MIC 100%, ROB08702, Study LGC296813): 16 mg/L (≈ 41.7 µM) | MIC (read-out: MIC 100%, ROB08702, Study LGC299544): 32 mg/L (≈ 83.4 µM) | MIC (read-out: MIC 100%, ROB08702, Study LGC301026): 16 mg/L (≈ 41.7 µM) | MIC (read-out: MIC 100%, ROB08702, Study LGC308175): 32 mg/L (≈ 83.4 µM) | MIC (read-out: MIC 100%, ROB08702, Study ROC003): 16 mg/L (≈ 41.7 µM) | MIC (read-out: MIC 100%, ROB08702, Study ROC004): 32 mg/L (≈ 83.4 µM) | MIC (read-out: MIC 100%, ROB08702, Study ROC005): 32 mg/L (≈ 83.4 µM) | MIC (read-out: MIC 100%, ROB08702, Study ROC006): 64 mg/L (≈ 167 µM) | MIC (read-out: MIC 100%, ROB08702, Study ROC007): 32 mg/L (≈ 83.4 µM) | MIC (read-out: MIC 100%, ROB08702, Study ROC008): 16 mg/L (≈ 41.7 µM) | MIC (read-out: MIC 100%, ROB08702, Study ROC009): 16 mg/L (≈ 41.7 µM) | MIC (read-out: MIC 100%, ROB08702, Study ROC010): 32 mg/L (≈ 83.4 µM) | MIC (read-out: MIC 100%, ROB08702, Study ROC012): 32 mg/L (≈ 83.4 µM) | MIC (read-out: MIC 100%, ROB08702, Study ROC013): 32 mg/L (≈ 83.4 µM) | MIC (read-out: MIC 100%, ROB08703, Study LGC277937): 64 mg/L (≈ 167 µM) | MIC (read-out: MIC 100%, ROB08703, Study LGC279800): > 64 mg/L | MIC (read-out: MIC 100%, ROB08703, Study LGC281440): 64 mg/L (≈ 167 µM) | MIC (read-out: MIC 100%, ROB08703, Study LGC282160): 64 mg/L (≈ 167 µM) | MIC (read-out: MIC 100%, ROB08703, Study LGC282623): 64 mg/L (≈ 167 µM) | MIC (read-out: MIC 100%, ROB08703, Study LGC283932): > 64 mg/L | MIC (read-out: MIC 100%, ROB08703, Study LGC284200): 64 mg/L (≈ 167 µM) | MIC (read-out: MIC 100%, ROB08703, Study LGC284879): > 64 mg/L | MIC (read-out: MIC 100%, ROB08703, Study LGC285582): > 64 mg/L | MIC (read-out: MIC 100%, ROB08703, Study LGC286210): 64 mg/L (≈ 167 µM) | MIC (read-out: MIC 100%, ROB08703, Study LGC293598): > 64 mg/L | MIC (read-out: MIC 100%, ROB08703, Study LGC294355): 64 mg/L (≈ 167 µM) | MIC (read-out: MIC 100%, ROB08703, Study LGC295147): 64 mg/L (≈ 167 µM) | MIC (read-out: MIC 100%, ROB08703, Study LGC296813): 64 mg/L (≈ 167 µM) | MIC (read-out: MIC 100%, ROB08703, Study LGC299544): > 64 mg/L | MIC (read-out: MIC 100%, ROB08703, Study LGC301026): 64 mg/L (≈ 167 µM) | MIC (read-out: MIC 100%, ROB08703, Study LGC308175): 64 mg/L (≈ 167 µM) | MIC (read-out: MIC 100%, ROB08703, Study ROC003): 64 mg/L (≈ 167 µM) | MIC (read-out: MIC 100%, ROB08703, Study ROC004): 64 mg/L (≈ 167 µM) | MIC (read-out: MIC 100%, ROB08703, Study ROC005): > 64 mg/L | MIC (read-out: MIC 100%, ROB08703, Study ROC006): 64 mg/L (≈ 167 µM) | MIC (read-out: MIC 100%, ROB08703, Study ROC007): > 64 mg/L | MIC (read-out: MIC 100%, ROB08703, Study ROC008): 64 mg/L (≈ 167 µM) | MIC (read-out: MIC 100%, ROB08703, Study ROC009): 64 mg/L (≈ 167 µM) | MIC (read-out: MIC 100%, ROB08703, Study ROC010): 64 mg/L (≈ 167 µM) | MIC (read-out: MIC 100%, ROB08703, Study ROC012): 64 mg/L (≈ 167 µM) | MIC (read-out: MIC 100%, ROB08703, Study ROC013): > 64 mg/L | MIC (read-out: MIC 100%, ROB08704, Study LGC277937): 64 mg/L (≈ 167 µM) | MIC (read-out: MIC 100%, ROB08704, Study LGC279800): 64 mg/L (≈ 167 µM) | MIC (read-out: MIC 100%, ROB08704, Study LGC281440): 32 mg/L (≈ 83.4 µM) | MIC (read-out: MIC 100%, ROB08704, Study LGC282160): 32 mg/L (≈ 83.4 µM) | MIC (read-out: MIC 100%, ROB08704, Study LGC282623): 64 mg/L (≈ 167 µM) | MIC (read-out: MIC 100%, ROB08704, Study LGC283932): 32 mg/L (≈ 83.4 µM) | MIC (read-out: MIC 100%, ROB08704, Study LGC284200): 32 mg/L (≈ 83.4 µM) | MIC (read-out: MIC 100%, ROB08704, Study LGC284879): 64 mg/L (≈ 167 µM) | MIC (read-out: MIC 100%, ROB08704, Study LGC285582): 32 mg/L (≈ 83.4 µM) | MIC (read-out: MIC 100%, ROB08704, Study LGC286210): 64 mg/L (≈ 167 µM) | MIC (read-out: MIC 100%, ROB08704, Study LGC293598): 32 mg/L (≈ 83.4 µM) | MIC (read-out: MIC 100%, ROB08704, Study LGC294355): 64 mg/L (≈ 167 µM) | MIC (read-out: MIC 100%, ROB08704, Study LGC295147): 64 mg/L (≈ 167 µM) | MIC (read-out: MIC 100%, ROB08704, Study LGC296813): 32 mg/L (≈ 83.4 µM) | MIC (read-out: MIC 100%, ROB08704, Study LGC299544): 32 mg/L (≈ 83.4 µM) | MIC (read-out: MIC 100%, ROB08704, Study LGC301026): 32 mg/L (≈ 83.4 µM) | MIC (read-out: MIC 100%, ROB08704, Study LGC308175): 64 mg/L (≈ 167 µM) | MIC (read-out: MIC 100%, ROB08704, Study ROC003): 64 mg/L (≈ 167 µM) | MIC (read-out: MIC 100%, ROB08704, Study ROC004): 64 mg/L (≈ 167 µM) | MIC (read-out: MIC 100%, ROB08704, Study ROC005): 64 mg/L (≈ 167 µM) | MIC (read-out: MIC 100%, ROB08704, Study ROC006): 64 mg/L (≈ 167 µM) | MIC (read-out: MIC 100%, ROB08704, Study ROC007): 64 mg/L (≈ 167 µM) | MIC (read-out: MIC 100%, ROB08704, Study ROC008): 64 mg/L (≈ 167 µM) | MIC (read-out: MIC 100%, ROB08704, Study ROC009): 32 mg/L (≈ 83.4 µM) | MIC (read-out: MIC 100%, ROB08704, Study ROC010): 64 mg/L (≈ 167 µM) | MIC (read-out: MIC 100%, ROB08704, Study ROC012): 32 mg/L (≈ 83.4 µM) | MIC (read-out: MIC 100%, ROB08704, Study ROC013): 64 mg/L (≈ 167 µM) | MIC (read-out: MIC 100%, ROB08705, Study LGC277937): 64 mg/L (≈ 167 µM) | MIC (read-out: MIC 100%, ROB08705, Study LGC279800): 16 mg/L (≈ 41.7 µM) | MIC (read-out: MIC 100%, ROB08705, Study LGC281440): 32 mg/L (≈ 83.4 µM) | MIC (read-out: MIC 100%, ROB08705, Study LGC282160): 32 mg/L (≈ 83.4 µM) | MIC (read-out: MIC 100%, ROB08705, Study LGC282623): 32 mg/L (≈ 83.4 µM) | MIC (read-out: MIC 100%, ROB08705, Study LGC283932): 32 mg/L (≈ 83.4 µM) | MIC (read-out: MIC 100%, ROB08705, Study LGC284200): 32 mg/L (≈ 83.4 µM) | MIC (read-out: MIC 100%, ROB08705, Study LGC284879): 32 mg/L (≈ 83.4 µM) | MIC (read-out: MIC 100%, ROB08705, Study LGC285582): 32 mg/L (≈ 83.4 µM) | MIC (read-out: MIC 100%, ROB08705, Study LGC286210): 32 mg/L (≈ 83.4 µM) | MIC (read-out: MIC 100%, ROB08705, Study LGC293598): 32 mg/L (≈ 83.4 µM) | MIC (read-out: MIC 100%, ROB08705, Study LGC294355): 32 mg/L (≈ 83.4 µM)
